Test results published in patent US7154028B2, “Gibberellin 2-oxidase gene, functions and uses thereof” (National Agriculture and Bio-Oriented Research Organization, priority 2002, dated 2006).
Blank lines part the entries; values can stand above or below the molecule they belong to.

Assays:
OsGA2ox3 [1] = biological target: T1, OsGA2ox3 (Oryza sativa subsp. japonica, UniProt Q8S0S6); test: Enzyme assay with recombinant OsGA2ox3 (E. coli lysate), products identified by GC-MS; assay type: biochemical; settings: labeled substrate incubated with recombinant OsGA2ox3, full scan GC-MS
T1 construct: general method only; made in house; host or cells: E. coli
Text: A cell lysate obtained from E. coli heterologously expressing OsGA2ox3 cDNA was used for enzyme assay as previously described (Sakamoto, T. et al., Plant Physiol., 125(3): 1508–16, (2001)). […] However, GA20 was metabolized to a GA29-catabolite. Furthermore, the metabolism of GA29 to a GA29-catabolite was confirmed by metabolism experiments.

OsGA2ox1 [2] = settings: cited from earlier work
AtGA2ox2 = settings: GA-deficient mutants, after treatment with GA3; cited from earlier work
OsGA2ox1 [3] = settings: GA3-treatment; cited from earlier work
OsGA2ox3 [4] = test: RNA gel blot of OsGA2ox3 transcription in treated rice seedlings; assay type: in vivo, Oryza sativa; settings: for transcription level of the OsGA2ox3 gene: FIG. 6B; for Transcription level of OsGA2ox3: wild-type rice seedlings, 10 μM, three days, FIG. 6A
Method: (§1) Seeds of wild-type rice (Oryza sativa L., i.e. Nipponbare) were sterilized in 1% NaClO for one hour, and seeded on agar medium. Seedlings were grown in a growth chamber under continuous light at 30° C. To investigate the influence of GA3 and uniconazole on GA-oxidase expression, wild-type rice seedlings were transferred to a hydroponic culture system containing 10 μM GA3 or 10 μM uniconazole, and allowed to grow for three days. Ten-micrograms of RNAs were prepared from each sample, and gel blot analysis was performed as previously described (Sakamoto, T. et al., Plant Physiol., 125(3): 1508–16, 2001). The influence of uniconazole, a suppressor of GA3 and GA biosyntheses, on the transcriptional level of OsGA2ox2 and OsGA2ox3 (FIG. 6A) was examined. Transcription level of OsGA2ox3 was increased by GA3 treatment, but decreased by uniconazole (FIG. 6A) treatment. […] Transcription of the […] gene was not detected even after GA3 treatment.

OsGA20ox1 = test: RNA gel blot of GA20-oxidase gene transcription in treated rice seedlings; assay type: in vivo, Oryza sativa; settings: wild-type rice seedlings, 10 μM, three days, relative to the effect on OsGA2ox3
Method: as §1

AtGA2ox1 = settings: GA-deficient mutants, after treatment with GA3; cited from earlier work
wild type rice = test: Overexpression of OsGA2ox3 cDNA in transgenic rice; assay type: in vivo, Oryza sativa
Method: As previously described (Sakamoto, T. et al., Plant Physiol., 125(3): 1508–16, 2001), the full-length OsGA2ox3 cDNA was inserted between the rice actin promoter and the polyadenylation signal of nopaline synthase (NOS) present in a hygromycin resistant binary vector pAct-Hm2. This construct was introduced into Agrobacterium tumefaciens EHA101. Agrobacterium-mediated transformation was conducted as described in the literature (WO 01/06844 A1). Transgenic plants were selected on a medium containing 50 mg/L hygromycin.
To test the activity of the OsGA2ox3 gene product in vivo, the full-length OsGA2ox3 cDNA was fused to the rice actin promoter and introduced into wild type rice by Agrobacterium-mediated gene transfer. […] Leaf blades of these plants were dark green, and they were shorter and wider than those of the wild type plants. All of these phenotypes are typical for GA-deficient dwarf rice plants.

T1 sequence (Q8S0S6 whole entry): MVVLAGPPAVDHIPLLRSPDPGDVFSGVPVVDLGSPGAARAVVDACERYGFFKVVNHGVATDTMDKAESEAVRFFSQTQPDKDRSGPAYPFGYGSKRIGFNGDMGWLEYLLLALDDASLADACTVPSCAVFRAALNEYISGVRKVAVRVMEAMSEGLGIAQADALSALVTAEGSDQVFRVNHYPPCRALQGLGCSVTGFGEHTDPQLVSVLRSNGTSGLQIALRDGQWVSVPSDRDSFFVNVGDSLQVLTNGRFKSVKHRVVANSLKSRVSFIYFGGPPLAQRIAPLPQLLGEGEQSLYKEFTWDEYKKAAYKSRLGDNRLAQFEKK

Product (OsGA2ox3 [1]): GA8 | Product (OsGA2ox3 [1]; listed as [^2H2]GA1): [^2H2]GA8
Molecule: C=C1C[C@]23C[C@@]1(O)CC[C@H]2[C@@]12CC[C@H](O)[C@@](C)(C(=O)O1)[C@H]2[C@@H]3C(=O)O [GA1]
product of metabolism by OsGA2ox1 gene product (OsGA2ox1 [2]): GA8

Molecule: C=C1C[C@]23C[C@@]1(O)CC[C@H]2[C@@]12C=C[C@H](O)[C@@](C)(C(=O)O1)[C@H]2[C@@H]3C(=O)O [GA3]
transcription levels of AtGA2ox2 (AtGA2ox2): increased | transcription level of OsGA2ox1 (OsGA2ox1 [3]): not affected | Transcription of the OsGA2ox3 gene (OsGA2ox3 [4]; after GA3 treatment, detection): not detected | transcription level of the OsGA2ox3 gene (OsGA2ox3 [4]; one hour after GA3 treatment): increased | transcription level of the OsGA2ox3 gene (OsGA2ox3 [4]; six hours after GA3 treatment): decreased to a level that was even lower than the transcription level observed before GA3 treatment | Transcription level of OsGA2ox3 (OsGA2ox3 [4]): increased | transcriptional level of the OsGA20ox1 gene (OsGA20ox1): completely reversed | transcription levels of AtGA2ox1 (AtGA2ox1): increased

Product (OsGA2ox3 [1]): GA29-catabolite | Product (OsGA2ox3 [1]; listed as [^2H2]GA20): [^2H2]GA29-catabolite
Molecule: C=C1C[C@]23C[C@@]1(O)CC[C@H]2[C@@]12CCC[C@@](C)(C(=O)O1)[C@H]2[C@@H]3C(=O)O [GA20, gibberellin A20]
product of metabolism by OsGA2ox1 gene product (OsGA2ox1 [2]): GA29

Product (OsGA2ox3 [1]): GA29-catabolite | Product (OsGA2ox3 [1]; listed as [^2H2]GA29): [^2H2]GA29-catabolite
Molecule: C=C1C[C@]23C[C@@]1(O)CC[C@H]2[C@@]12C[C@H](O)C[C@@](C)(C(=O)O1)[C@H]2[C@@H]3C(=O)O [GA29, gibberellin A29]

Molecule: CC(C)(C)C(O)/C(=C\c1ccc(Cl)cc1)n1cncn1 (centres unmarked) [uniconazole]
Transcription level of OsGA2ox3 (OsGA2ox3 [4]): decreased | transcriptional level of the OsGA20ox1 gene (OsGA20ox1): completely reversed

B1: OsGA2ox3 cDNA: full-length rice GA2-oxidase cDNA (SEQ ID NO: 3) fused to the rice actin promoter, introduced into rice (nucleic acid, listed as Oryza sativa)
DNA: ATGGTGGTTCTCGCTGGCCCGCCCGCCGTCGATCACATCCCGCTGCTGAGGTCGCCGGACCCCGGCGACGTCTTCTCCGGCGTGCCGGTCGTCGACCTCGGCAGCCCCGGCGCGGCGAGGGCCGTGGTGGACGCCTGCGAGCGGTACGGGTTCTTCAAGGTCGTCAACCACGGCGTGGCCACGGACACGATGGACAAGGCCGAGTCGGAGGCCGTCAGGTTCTTCTCCCAGACGCAGCCCGACAAGGACCGCTCCGGCCCGGCCTACCCGTTCGGGTACGGCAGCAAGCGGATCGGGTTCAATGGCGACATGGGGTGGCTCGAGTACCTCCTCCTCGCCCTCGACGACGCGTCGCTCGCCGACGCCTGCACCGTCCCGTCCTGCGCGGTCTTCCGGGCCGCTCTGAACGAGTACATCTCGGGGGTGCGGAAGGTGGCGGTGCGGGTGATGGAGGCGATGTCGGAGGGGCTGGGCATTGCGCAGGCGGACGCGCTGAGCGCGCTGGTGACGGCGGAAGGGAGCGACCAGGTGTTCCGCGTGAACCACTACCCGCCGTGCCGCGCGCTGCAGGGGCTCGGCTGCAGCGTCACCGGCTTCGGCGAGCACACCGACCCGCAGCTCGTCTCCGTGCTCCGCTCAAACGGCACGTCCGGCCTGCAGATCGCGCTCCGCGACGGCCAGTGGGTGTCCGTGCCCTCCGACCGCGACTCCTTCTTCGTCAACGTCGGCGACTCGTTGCAGGTTCTGACCAATGGGAGGTTCAAGAGCGTGAAGCACAGGGTGGTGGCCAACAGCCTAAAGTCTAGGGTTTCCTTCATCTACTTTGGAGGGCCACCGTTAGCACAGAGGATTGCACCATTGCCACAGCTGCTGGGGGAGGGAGAGCAGAGCCTGTACAAGGAGTTCACATGGGATGAGTACAAGAAGGCTGCCTACAAATCAAGGCTTGGAGACAACAGGCTGGCCCAGTTTGAGAAGAAGTAG
modifications: rice actin promoter fused, not cited; CDS (1)..(984)
phenotype of transgenic plants (wild type rice; rice actin promoter, 27 independent lines, FIG. 5): extreme dwarf phenotypes | flowering of transgenic plants (wild type rice; wild type flowered about three months after seeding): did not flower even after four months
